In patent US11634425B2, “Pharmaceutical compounds” (priority 2019, dated 2023):

Assays:
[1] = test system: RSV A2; test: RSV plaque reduction assay; type: cell-based, respiratory syncytial virus (RSV); conditions: human respiratory syncytial virus, HepG2, Hep-G2 cells, mean of at least two experiments
Procedure: (§1) Compounds were subjected to RSV plaque reduction assays according to the following protocol. Plaque EC50 and cell toxicity CC50 values are a mean of at least two experiments and figures are rounded to whole units.
Hep-G2 cells (ECACC, 85011430) were passaged in flasks and seeded in 24-well plates in DMEM containing antibiotics and supplemented with 10% FBS. During inoculation and subsequent incubation, cells were cultured in DMEM containing 2% FBS. 100 plaque forming unit/well of RSV (RSV A2 ECACC, 0709161v) was mixed with eight serial dilutions of compound. Subsequently, 100 μL of the virus/compound mixtures was added to confluent Hep-G2 cell monolayers. The cells and virus/compound mixtures were incubated at 37° C. in a humidified 5% CO2 incubator for 2 h prior to removal of the inoculum and addition of 1 mL of overlay (DMEM containing 2% FBS and 0.8% CMC) containing compound dilutions. The cells and were incubated at 37° C. in a humidified 5% CO2 incubator for 2 days.
Cells were washed with PBS before adding 75/25% […] EtOH/MeOH, for 3 min. Fixative was removed and plates were washed with PBS. A pre-titrated amount of the primary antibody was added in 200 μL PBS/2% milk powder, and plates incubated for 90 min at 37° C. The plates were washed 3 times with PBS/0.05% Tween20 before addition of rabbit anti-goat horse radish peroxidase in 200 μL PBS/2% milk powder, and incubated for 1 h at 37° C. Following three wash steps with PBS/0.05% Tween20, 200 μL ready-to-use TrueBlue was added and plates were incubated at rt for 10-15 min before washing with water. After removal of water, plates were air-dried in the dark.
(§2) Plates were scanned and analysed using the Immunospot S6 Macro analyser, which is equipped with BioSpot analysis software for counting immunostained plaques (virospots). Plaque counts were used to calculate % c infection relative to the mean of the plaque count in the virus control wells for RSV. The EC50 value was calculated as 50% reduction in signal, respectively, by interpolation of inhibition curves fitted with a 4-parameter nonlinear regression with a variable slope in Dotmatics. Plaque EC50 and cell toxicity CC50 values are a mean of at least two experiments and figures are rounded to whole units.

[2] = Cell cytotoxicity (CC50); type: cell-based; conditions: human; mean of at least two experiments
Source text: as §1, §2

Compound	EC50 [1]	CC50 [2]
O=C(N[C@H]1N=C(c2ccccc2)c2cccc(F)c2NC1=O)c1c(-c2ccccc2)nc2ccc(N3C[C@H]4C[C@@H]3CO4)nn12 [Example 82, N-[(3S)-9-fluoro-2-oxo-5-phenyl-1,3-dihydro-1,4-benzodiazepin-3-yl]-6-[(1R,4R)-2-oxa-5-azabicyclo[2.2.1]heptan-5-yl]-2-phenylimidazo[1,2-b]pyridazine-3-carboxamide]	81 nM	> 25000 nM
O=C(N[C@H]1N=C(c2ccccc2)c2cccc(F)c2NC1=O)c1c(-c2ccccc2)nc2ccc(N3CCOCC3)nn12 [Example 83, N-[(3S)-9-fluoro-2-oxo-5-phenyl-1,3-dihydro-1,4-benzodiazepin-3-yl]-6-morpholin-4-yl-2-phenylimidazo[1,2-b]pyridazine-3-carboxamide]	118 nM	> 25000 nM
CN1C[C@H]2C[C@@H]1CN2c1ccn2nc(-c3ccccc3F)c(C(=O)N[C@H]3N=C(c4ccccc4)c4cccc(F)c4NC3=O)c2n1 [Example 84, N-[(3S)-9-fluoro-2-oxo-5-phenyl-1,3-dihydro-1,4-benzodiazepin-3-yl]-2-(2-fluorophenyl)[(1R,4R)-5-methyl-2,5-diazabicyclo[2.2.1]heptan-2-yl]pyrazolo[1,5-a]pyrimidine-3-carboxamide]	95 nM	16300 nM
COc1nc(C)ccc1-c1nn2cccnc2c1C(=O)N[C@H]1N=C(c2ccccc2)c2ccccc2NC1=O [Example 86, 2-(2-Methoxy-6-methylpyridin-3-yl)-N-[(3S)-2-oxo-5-phenyl-1,3-dihydro-1,4-benzodiazepin-3-yl]pyrazolo[1,5-a]pyrimidine-3-carboxamide]	119 nM	> 25000 nM
Cc1ccc2nc(-c3ccc(F)cc3F)c(C(=O)N[C@H]3N=C(c4ccccc4)c4ccccc4NC3=O)n2n1 [Example 90, 2-(2,4-Difluorophenyl)-6-methyl-N-[(3S)-2-oxo-5-phenyl-1,3-dihydro-1,4-benzodiazepin-3-yl]imidazo[1,2-b]pyridazine-3-carboxamide]	8 nM	> 25000 nM
Cc1ccc2nc(-c3ccccc3)c(C(=O)N[C@H]3N=C(c4ccccc4)c4ccccc4NC3=O)n2n1 [Example 92, 6-Methyl-N-[(3S)-2-oxo-5-phenyl-1,3-dihydro-1,4-benzodiazepin-3-yl]-2-phenylimidazo[1,2-b]pyridazine-3-carboxamide]	48 nM	> 25000 nM
O=C(N[C@H]1N=C(c2ccccc2)c2cccc(F)c2NC1=O)c1c(-c2ccccc2F)nc2ccc(N3CCC3)nn12 [Example 94, 6-(Azetidin-1-yl)-N-[(3S)-9-fluoro-2-oxo-5-phenyl-1,3-dihydro-1,4-benzodiazepin-3-yl]-2-(2-fluorophenyl)imidazo[1,2-b]pyridazine-3-carboxamide]	50 nM	> 25000 nM
Cc1cc(-c2nc3ccc(C)nn3c2C(=O)N[C@H]2N=C(c3ccccc3)c3ccccc3NC2=O)ccn1 [Example 97, 6-Methyl-2-(2-methylpyridin-4-yl)-N-[(3S)-2-oxo-5-phenyl-1,3-dihydro-1,4-benzodiazepin-3-yl]imidazo[1,2-b]pyridazine-3-carboxamide]	49 nM	> 25000 nM
Cc1cc(-c2nc3ccc(C)nn3c2C(=O)N[C@H]2N=C(c3ccccc3)c3cccc(F)c3NC2=O)ccn1 [Example 98, N-[(3S)-9-fluoro-2-oxo-5-phenyl-1,3-dihydro-1,4-benzodiazepin-3-yl]-6-methyl-2-(2-methylpyridin-4-yl)imidazo[1,2-b]pyridazine-3-carboxamide]	48 nM	> 25000 nM
Cc1ccc2nc(-c3ccncc3F)c(C(=O)N[C@H]3N=C(c4ccccc4)c4ccccc4NC3=O)n2n1 [Example 99, 2-(3-Fluoropyridin-4-yl)-6-methyl-N-[(3S)-2-oxo-5-phenyl-1,3-dihydro-1,4-benzodiazepin-3-yl]imidazo[1,2-b]pyridazine-3-carboxamide]	51 nM	> 25000 nM
Cc1ccc2nc(-c3cncc(F)c3)c(C(=O)N[C@H]3N=C(c4ccccc4)c4ccccc4NC3=O)n2n1 [Example 101, 2-(5-Fluoropyridin-3-yl)-6-methyl-N-[(3S)-2-oxo-5-phenyl-1,3-dihydro-1,4-benzodiazepin-3-yl]imidazo[1,2-b]pyridazine-3-carboxamide]	81 nM	> 25000 nM
Cc1ccc2nc(-c3cncc(F)c3)c(C(=O)N[C@H]3N=C(c4ccccc4)c4cccc(F)c4NC3=O)n2n1 [Example 102, N-[(3S)-9-fluoro-2-oxo-5-phenyl-1,3-dihydro-1,4-benzodiazepin-3-yl]-2-(5-fluoropyridin-3-yl)-6-methylimidazo[1,2-b]pyridazine-3-carboxamide]	105 nM	> 19200 nM
Cc1cncc(-c2nc3ccc(C)nn3c2C(=O)N[C@H]2N=C(c3ccccc3)c3cccc(F)c3NC2=O)c1 [Example 103, N-[(3S)-9-fluoro-2-oxo-5-phenyl-1,3-dihydro-1,4-benzodiazepin-3-yl]-6-methyl-2-(5-methylpyridin-3-yl)imidazo[1,2-b]pyridazine-3-carboxamide]	82 nM	> 25000 nM
Cc1ccc2nc(-c3ccc(N4CCOCC4)nc3)c(C(=O)N[C@H]3N=C(c4ccccc4)c4ccccc4NC3=O)n2n1 [Example 104, 6-Methyl-2-(6-morpholin-4-ylpyridin-3-yl)-N-[(3S)-2-oxo-5-phenyl-1,3-dihydro-1,4-benzodiazepin-3-yl]imidazo[1,2-b]pyridazine-3-carboxamide]	29 nM	> 25000 nM
COCCOc1ccc2nc(-c3ccccc3F)c(C(=O)N[C@H]3N=C(c4ccccc4)c4cccc(F)c4NC3=O)n2n1 [Example 110, N-[(3S)-9-Fluoro-2-oxo-5-phenyl-1,3-dihydro-1,4-benzodiazepin-3-yl]-2-(2-fluorophenyl)-6-(2-methoxyethoxy)imidazo[1,2-b]pyridazine-3-carboxamide]	73 nM	> 25000 nM
COc1ccc2nc(-c3ccccc3)c(C(=O)N[C@H]3N=C(c4ccccc4)c4ccccc4NC3=O)n2n1 [Example 111, 6-Methoxy-N-[(3S)-2-oxo-5-phenyl-1,3-dihydro-1,4-benzodiazepin-3-yl]-2-phenylimidazo[1,2-b]pyridazine-3-carboxamide]	48 nM	> 25000 nM
[2H]C([2H])([2H])Oc1ccc2nc(-c3ccccc3)c(C(=O)N[C@H]3N=C(c4ccccc4)c4ccccc4NC3=O)n2n1 [Example 112, N-[(3S)-2-oxo-5-phenyl-1,3-dihydro-1,4-benzodiazepin-3-yl]-2-phenyl-6-(trideuteriomethoxy)imidazo[1,2-b]pyridazine-3-carboxamide]	50 nM	> 25000 nM
CCc1ccc(-c2nc3ccc(Cl)nn3c2C(=O)N[C@H]2N=C(c3ccccc3)c3cccc(F)c3NC2=O)cn1 [Example 117, 6-Chloro-2-(6-ethylpyridin-3-yl)-N-[(3S)-9-fluoro-2-oxo-5-phenyl-1,3-dihydro-1,4-benzodiazepin-3-yl]imidazo[1,2-b]pyridazine-3-carboxamide]	27 nM	> 25000 nM
COc1ccc2nc(-c3ccc(C)cn3)c(C(=O)N[C@H]3N=C(c4ccccc4)c4cccc(F)c4NC3=O)n2n1 [Example 120, N-[(3S)-9-fluoro-2-oxo-5-phenyl-1,3-dihydro-1,4-benzodiazepin-3-yl]-6-methoxy-2-(6-methyipyridin-3-yl)imidazo[1,2-b]pyridazine-3-carboxamide]	101 nM	> 25000 nM
